Assay results taken from patent publication US20080132481A1, “INTERLEUKIN-4 GENE EXPRESSION INHIBITORS” (AVENTIS PHARMACEUTICALS INC., priority 2002, published 2008).
Counter-ions that a name gives are not always drawn. Starred links: 1 amine or outer side, 2 acyl side, 3 side chain; linkers in the order of their positions; H or OH if unused. Positions of bridges follow the written chain, without caps; N, C: chain ends. Non-standard residues stand in square brackets, D forms with d. Residues, ends and D or L forms follow the SMILES beside them. Chains are numbered I, II in the order given. Actinocin(9to1) = Cc1c2oc3c(C)ccc(C(=O)[*:1])c3nc-2c(C(=O)[*:2])c(N)c1=O; NMeV = CN[C@H](C(=O)O)C(C)C; Sar = CNCC(=O)O

Assays:
IL-4 = test: In vivo ovalbumin (OVA) mouse model, BALF IL-4; conditions: i.n.
Procedure: (§1) This model is designed to determine the ability of a test article to modulate an antigen-induced pulmonary inflammatory cell accumulation in sensitized Balb/c mice from Charles River Laboratories. The mice are given a two week time period from arrival date prior to sensitizations.
(§2) On days 0, 7, 14, each animal is injected intraperitoneal (i.p.) with a 0.2 ml Ovalbumin Hydragel solution. Each animal receives 10 μg of Ovalbumin in 0.2 mL of Hydragel, aluminum hydroxide adsorptive gel containing 2% aluminum oxide. On Day 21, the animals are dosed with test compounds 30-60 minutes prior to 5% Ovalbumin aerosolized challenge. On day 22, BALF samples are collected from one group of animals and used for cytokine analysis. On day 24, BALF is obtained from a second group of animals and used for differential cell counts.
(§3) Test System: Female Babl/cJ mice (Jackson Laboratories), approximately 6-9 weeks old, each weighing approximately 20 to 25 grams, are divided into ten animals per group.
(§4) Sensitization Regimen: Mice are sensitized by an intraperitoneal injection of 10 μg ovalbumin (OVA) mixed in 4 mg aluminum hydroxide Al(OH)3 gel suspension in 0.2 ml sterile saline on Days 0, 7 and 14. This suspension is prepared one hour before intraperitoneal injection into each mouse. The animals are ready for OVA challenge on Day 21.
(§5) Antigen Challenge: Animals are exposed to aerosolized OVA on day 21 (5% w/v in sterile saline) for 20 minutes. The aerosol is generated by a PARI-Master nebulizer, the outlet of which is connected to a small Plexiglas® chamber containing the animals. Bronchoalveolar lavage is performed on Day 22.
(§6) Method of Study Performance: On day 24, 72 hours following aerosol OVA exposure, a separate group of animals are anesthetized with urethane (0.15-0.2 gm/kg) and the trachea is exposed and cannulated. Lungs are lavaged with 2×0.5 ml Hank's balanced salt solution without Ca^2+ and Mg^2+ (HBSS; Gibco, Grand Island, N.Y.) containing 0.1% EDTA. Lavage fluid is recovered after 30 sec by gentle aspiration and pooled for each animal. Samples are centrifuged at 2000 rpm for 15 minutes at 5° C. After centrifugation, individual supernatants are stored frozen at −80° C. The resulting pellet is resuspended in 0.5 ml of HBSS containing 0.1% EDTA. Total cells and eosinophils are determined using a Technicon Hl and cytoslides, respectively.
Administration of the Test/Control Article: The test article and vehicle dosing preparations are administered once to each anesthetized mouse intranasally using a 200 μl pipette at 30-60 minutes prior to OVA challenge. Each animal receives 50 μl (25 μl/nostril) at each time point. Method of Euthanasia: Urethane overdose at in-life completion.
Statistical Analysis: Total cell and eosinophil number from various treatment groups is compared using an ANOVA followed by a multiple comparison test.
Compounds administered 30 minutes before aerosol ovalbumin challenge in ova sensitized mice. BALF harvested 24 hours after aerosol challenge. N=6/group.
FIG. 1 summarizes results from one representative experiment (out of three) in which in addition to BALF cytokines, lung eosinophilia is also determined. Mice (12 animals per group) are sensitized with 0.2 ml of an AlOH3 hydrogel suspension (2% AlOH3) containing 50 μg/ml ovalbumin on days 0, 7 and 14. […] After the OVA challenge for 24 hours, the mice underwent bronchoalveolar lavage and IL-4 and IL-13 levels in the BALF are determined by ELISA. […]

Swiss 3T3 fibroblasts = test: In vitro cytotoxicity assay on contact inhibited 3T3 fibroblasts (MTS); assay type: cell-based; conditions: non-dividing 3T3 cells
Procedure: Other toxicity assays may be used.
Any compound killing 3T3 fibroblast cells was omitted from further studies.
Contact inhibited Swiss 3T3 fibroblasts are purchased from ATCC.
All compound dilutions are assayed in triplicate. […] Cells are returned to the incubator for 2 days.
Media is added to blank wells for background calculations.
Note that starting concentration of CsA was 1 μM.

eosinophils = test: In vivo ovalbumin (OVA) mouse model, BALF eosinophils; conditions: i.n., 30 mg/kg
Procedure: as §1, §2, §3, §4, §5
as §6, with “respectively. […]” for “respectively.”
FIG. 1 summarizes results from one representative experiment (out of three) in which in addition to BALF cytokines, lung eosinophilia is also determined. […] After the OVA challenge for 24 hours, the mice underwent bronchoalveolar lavage and IL-4 and IL-13 levels in the BALF are determined by ELISA. […]

melting point | Structure (SMILES) | Eos % ctl At 72 hours (eosinophils) | IL-4% ctl At 24 hours (IL-4; 30 mg/kg) | also measured
– | O=C(O)c1[nH]c2ccccc2c1Nc1ccncc1 [28 (maleate salt), 3-(4-Pyridinylamino)-1H-indole-2-carboxylic acid] | – | – | IL-4% ctl At 24 hours (IL-4; 12 mg/kg): 50 % ctl
– | Cc1c2oc3c(C)ccc(C(=O)N[C@@H]4C(=O)N[C@H](C(C)C)C(=O)N5CCC[C@H]5C(=O)N(C)CC(=O)N(C)[C@@H](C(C)C)C(=O)O[C@@H]4C)c3nc-2c(C(=O)N[C@@H]2C(=O)N[C@H](C(C)C)C(=O)N3CCC[C@H]3C(=O)N(C)CC(=O)N(C)[C@@H](C(C)C)C(=O)O[C@@H]2C)c(N)c1=O [Actinomycin D, reference compound] (I: T[dV]P[Sar][NMeV] / II: T[dV]P[Sar][NMeV]; ester I:1-I:C, II:1-II:C; linker I:N-II:N via Actinocin(9to1)) | – | – | toxic effects on quiescent 3T3 cells (in words) (Swiss 3T3 fibroblasts): the only compound which effected the viability
248 to 250 °C | CCOC(=O)c1[nH]c2ccccc2c1Nc1ccncc1 [Example 11, 3-(4-pyridinylamino)-1H-indole-2-carboxylic acid, ethyl ester] | – | – | –
258 to 261 °C (dec.) | CCOC(=O)c1[nH]c2cc(Cl)ccc2c1Nc1ccncc1 [Example 13, 6-chloro-3-(4-pyridinylamino)-1H-indole-2-carboxylic acid, ethyl ester] | – | – | –
241 to 243 °C | CCOC(=O)c1[nH]c2cc(-c3ccccc3)ccc2c1Nc1ccncc1 [Example 18, 6-phenyl-3-(4-pyridinylamino)-1H-indole-2-carboxylic acid, ethyl ester] | – | – | –
– | CCOC(=O)c1c(Nc2ccncc2)c2ccccc2n1C [Example 24A (maleate salt), 1-Methyl-3-(4-pyridinylamino)-1H-indole-2-carboxylic ethyl ester] | 8 % ctl | 3 % ctl | –
– | O=C(O)c1[nH]c2ccccc2c1Nc1ccncc1 [Example 28-EF, 3-(4-Pyridinylamino)-1H-indole-2-carboxylic acid] | 42 % ctl | 27 % ctl | –
– | O=C(O)c1[nH]c2ccccc2c1Nc1ccncc1 [Example 28-ZD, 3-(4-Pyridinylamino)-1H-indole-2-carboxylic acid] | 37.4 % ctl | 49.6 % ctl | –
– | CCOC(=O)c1[nH]c2cc(Cl)cc(Cl)c2c1NS(=O)(=O)c1ccccc1 [Example 90, 3-((Phenylsulfonyl)amino)-4,6-dichloro-1H-indole-2-carboxylic acid ethyl ester] | 71 % ctl | 37 % ctl | –
